Measured values reported in patent US6537770B1, “Assay for detecting phospho-N-acetylmuramyl-pentapeptide translocase activity” (priority 1999, dated 2003).

How the values were obtained:
[1] = target: T1, translocase enzyme (Escherichia coli membranes) (Escherichia coli, UniProt P0A6W3); assay: phospho-N-acetylmuramyl-pentapeptide translocase assay with 3H-propionated UDP-MPP, butanol extraction and scintillation counting; assay type: biochemical; settings: Tunicamycin at 0.3 μg/ml; FIG. 2
T1 construct: The membranes are prepared from spheroplast pellets which are commercially available; Each pellet contains a certain amount of E. coli Hfr H; endogenous in cells; host or cells: E. coli Hfr H membranes, prepared from commercially available spheroplast pellets
T1 sequence (P0A6W3 whole entry): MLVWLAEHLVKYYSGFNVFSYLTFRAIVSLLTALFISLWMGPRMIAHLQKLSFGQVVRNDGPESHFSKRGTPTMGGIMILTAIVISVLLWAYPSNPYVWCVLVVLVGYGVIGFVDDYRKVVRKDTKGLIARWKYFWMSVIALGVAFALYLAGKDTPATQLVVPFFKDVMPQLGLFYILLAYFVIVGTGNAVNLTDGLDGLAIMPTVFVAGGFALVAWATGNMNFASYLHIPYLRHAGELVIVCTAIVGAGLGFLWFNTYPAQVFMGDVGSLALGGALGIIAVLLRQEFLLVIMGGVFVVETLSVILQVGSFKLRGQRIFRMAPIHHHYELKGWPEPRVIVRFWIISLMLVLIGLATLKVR
Method: Eppendorf tubes were individually filled with a total of 40 μl of the reaction mixture each, initially. The reaction mixture consisted of an aqueous buffer solution of 100 mM Tris-HCl (Tris[hydroxymethyl]aminomethane hydrochloride), 25 mM magnesium chloride, 50 Mm of potassium chloride, 0.1% w/v Triton X-100, 8 μM of propionated non-radioactive UDP-MPP, 2 μM of ^3H-propionated UDP-MPP at room temperature, 10 μl of the enzyme at a concentration of 5 μg per ml and 17.5 μl of water. To this a solution of a test compound (e.g. Tunicamycin) of varying concentration is added. […] The reaction commences with the addition of the enzyme.
The Escherichia coli membranes, which serve as a source of the enzyme, were prepared in the following manner.
The membranes are prepared from spheroplast pellets which are commercially available. Each pellet contains a certain amount of E. coli Hfr H. The pellet is thawed overnight at 4° C. The pellet is weighed and the figure is multiplied by 7.5. […] The pellet is again resuspended in the same volume of 50 mM Tris-HCl buffer solution of pH 7.5 as calculated in the previous paragraph, containing, 20 μg/ml DNAse, 20 μg/ml RNAse, 1 mM magnesium chloride and 1 mM β-mercapto ethanol. […]
The product is extracted with saturated n-butanol and washed with 50 μl of water. It is then counted, 25-50 μl at a time on a scintillation counter.

[2] = target: T1, translocase enzyme (Escherichia coli membranes); assay: reversal of the translocase reaction (Lipid I back to the water soluble precursor) on addition of UMP; assay type: biochemical; settings: 1 μM UMP added after 10 minutes reaction, stopped after about 3-4 minutes
Text: The reaction catalysed by the enzyme translocase is known to be reversible. To show the reversible reaction, the enzyme reaction was continued for 10 mintues to form the radioactive product, undecaprenol-pyrophosphate-[2,3-^3H]propionate-N-acetylmuramylpentapeptide, Lipid I. This is seperated from its organic phase. Once the radioactive product is formed one set of reactions is stopped using the 2:1 pyridinium acetate and n-butanol mixture as described before. In a parallel set of reactions, 1 μM UMP is added. The reaction is then stopped after about 3-4 minutes. The lipid fraction can be extracted from both the sets of reactions. […] This indicates the reversal of Lipid I to the water soluble precursor.

Compound	inhibition of translocase (rate, cpm versus time compared with control) [1]	radioactive count in the organic phase (Lipid I) [2]
Tunicamycin	antagonist of the translocase enzyme	–
O=c1ccn([C@@H]2O[C@H](COP(=O)(O)O)[C@@H](O)[C@H]2O)c(=O)[nH]1 [UMP]	–	reduced to basal levels
